# According to publication PMC3541985, “Improvement of Catalytic Efficiency, Thermo-stability and Dye Decolorization Capability of Pleurotus ostreatus IBL-02 laccase by Hydrophobic Sol Gel Entrapment” (Chemistry Central Journal, 2012):
# Test system: T1, P. ostreatus IBL-02 laccase
# T1 construct: gene pox2
# Conditions: free (not immobilised) enzyme; ABTS varied 0.1-1 mM, so the printed unit mM is doubtful; standard assay malonate buffer pH 4.5, 25°C
smiles,measurement,value
"CCn1c(=NN=c2sc3cc(S(=O)(=O)O)ccc3n2CC)sc2cc(S(=O)(=O)O)ccc21 [ABTS, 2, 2′-azino-bis-3-ethylbenzothiazoline-6-sulfonic acid]",Km,33 mM
